# Experimental data from patent US11945813B2, “5-substituted 4-amino-1H-benzo[c][1,2,6]thiadiazine 2,2-dioxides and formulations and uses thereof” (Firmenich Incorporated, priority 2018, dated 2024).
# Key:
# [1] = molecular target: T1, T1R2/T1R3 taste receptor (Homo sapiens, UniProt Q8TE23); assay: Receptor-based assay: sweetener EC50 alone and with test compound (enhancement ratio); format: cell-based; details: for Sucralose Enhancement EC50 Ratio: sweetener sucralose; for Sucrose Enhancement EC50 Ratio: sweetener sucrose; for Fructose Enhancement EC50 Ratio: sweetener fructose
# T1 sequence (Q8TE23 20-839): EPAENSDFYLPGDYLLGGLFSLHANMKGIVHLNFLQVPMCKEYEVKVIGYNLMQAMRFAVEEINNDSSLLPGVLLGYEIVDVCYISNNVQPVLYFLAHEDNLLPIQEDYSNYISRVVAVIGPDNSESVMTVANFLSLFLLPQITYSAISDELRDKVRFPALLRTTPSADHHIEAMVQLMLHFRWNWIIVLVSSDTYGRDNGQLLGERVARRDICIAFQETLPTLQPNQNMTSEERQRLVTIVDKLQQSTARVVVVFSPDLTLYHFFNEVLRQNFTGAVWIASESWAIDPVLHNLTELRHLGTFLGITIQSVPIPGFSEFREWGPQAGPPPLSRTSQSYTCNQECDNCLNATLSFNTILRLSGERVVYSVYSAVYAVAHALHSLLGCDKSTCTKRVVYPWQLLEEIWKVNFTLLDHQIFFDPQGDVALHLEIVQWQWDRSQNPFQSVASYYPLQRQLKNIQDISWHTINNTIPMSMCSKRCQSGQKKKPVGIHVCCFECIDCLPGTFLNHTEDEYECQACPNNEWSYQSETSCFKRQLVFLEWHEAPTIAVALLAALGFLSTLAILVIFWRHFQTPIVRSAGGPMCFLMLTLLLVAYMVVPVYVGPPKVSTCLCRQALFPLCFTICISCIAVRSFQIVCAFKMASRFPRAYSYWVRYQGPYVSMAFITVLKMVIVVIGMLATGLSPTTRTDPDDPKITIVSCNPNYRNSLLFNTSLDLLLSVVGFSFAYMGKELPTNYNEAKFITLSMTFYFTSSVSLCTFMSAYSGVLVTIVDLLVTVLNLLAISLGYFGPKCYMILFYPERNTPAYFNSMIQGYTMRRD
# T1 sequence (Q7RTX0 21-852 partner): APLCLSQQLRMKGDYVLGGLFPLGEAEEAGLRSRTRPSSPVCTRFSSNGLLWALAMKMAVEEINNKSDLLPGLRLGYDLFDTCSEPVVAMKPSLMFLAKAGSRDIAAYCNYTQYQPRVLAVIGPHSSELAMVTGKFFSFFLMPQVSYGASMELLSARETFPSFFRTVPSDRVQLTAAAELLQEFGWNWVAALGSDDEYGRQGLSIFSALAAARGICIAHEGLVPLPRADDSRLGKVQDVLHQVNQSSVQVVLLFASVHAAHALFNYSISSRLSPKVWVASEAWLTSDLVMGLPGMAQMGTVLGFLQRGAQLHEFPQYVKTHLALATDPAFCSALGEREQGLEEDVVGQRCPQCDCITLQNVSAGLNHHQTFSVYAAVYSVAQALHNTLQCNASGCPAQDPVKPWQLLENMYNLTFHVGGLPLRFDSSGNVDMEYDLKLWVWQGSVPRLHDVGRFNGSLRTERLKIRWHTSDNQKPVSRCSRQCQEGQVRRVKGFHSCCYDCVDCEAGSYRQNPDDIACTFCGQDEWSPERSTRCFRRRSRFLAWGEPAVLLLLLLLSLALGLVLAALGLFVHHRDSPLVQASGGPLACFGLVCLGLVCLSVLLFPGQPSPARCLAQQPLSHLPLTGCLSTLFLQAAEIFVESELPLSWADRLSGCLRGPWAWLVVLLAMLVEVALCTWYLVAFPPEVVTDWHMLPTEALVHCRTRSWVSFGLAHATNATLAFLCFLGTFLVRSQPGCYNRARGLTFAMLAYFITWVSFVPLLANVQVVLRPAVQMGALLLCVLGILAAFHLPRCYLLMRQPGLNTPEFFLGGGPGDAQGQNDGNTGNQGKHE
# In short: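 Sucrose, sucralose or fructose EC50 measured on human T1R2/T1R3, alone and with 3, 10 or 50 μM test compound. Enhancement is the EC50 ratio without/with compound, binned A >20, B 10-20, C >1 to <10.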
# [2] = Sensory experiments: paired comparison of sweetener alone vs sweetener plus test compound; format: in vivo, human; details: panelists
# Procedure: (§1) Test samples containing either a sweetener (sucrose or high-fructose corn syrup) alone or in combination with a test compound were presented in pairs to a group of panelists who were asked to determine which of the samples was sweeter. Subjects refrained from eating or drinking (except water) for at least 1 hour prior to the test. Subjects rinsed with water several times to clean the mouth. The samples within a paired comparison test were presented in a randomized, counterbalanced order. Panelists had up to a 1 minute delay between taste tests to clear the mouth of any tastes. Binomial probability tables were used to determine the probability of the correct number of responses occurring for each test at alpha-0.05.
# Stock solutions of test compounds were prepared at 1000× final concentration with ethanol to ensure dispersion in solution. Test compound samples including sucrose were prepared by diluting the stock solutions in a low sodium buffer (0.952 g of KCl, 5.444 g of Na2HPO4, and 0.952 g of KH2PO4 in deionized ultrafiltered water) at pH 7.1 and containing sucrose. Test compound samples including high fructose corn syrup were prepared by diluting the stock solutions in the low sodium buffer at pH 2.8 (using citric acid to adjust the pH) and containing high fructose corn syrup. Control samples were balanced to 0.1% ethanol final. […]
# [3] = Sensory evaluation of inherent sweetness of test compound; format: in vivo, human; details: test compound alone at 10 ppm
# Procedure: as §1
# Stock solutions of test compounds were prepared at 1000× final concentration with ethanol to ensure dispersion in solution. Test compound samples including sucrose were prepared by diluting the stock solutions in a low sodium buffer (0.952 g of KCl, 5.444 g of Na2HPO4, and 0.952 g of KH2PO4 in deionized ultrafiltered water) at pH 7.1 and containing sucrose. Test compound samples including high fructose corn syrup were prepared by diluting the stock solutions in the low sodium buffer at pH 2.8 (using citric acid to adjust the pH) and containing high fructose corn syrup. Control samples were balanced to 0.1% ethanol final.
# Compound 200 was also tested for inherent sweetness. […]
Structure (SMILES),Sucralose Enhancement EC50 Ratio ([1]; 10 μM test compound),Sucrose Enhancement EC50 Ratio ([1]; 3 μM test compound),Sucrose Enhancement EC50 Ratio ([1]; 10 μM test compound),Sucrose Enhancement EC50 Ratio ([1]; 50 μM test compound),"sweetness intensity of the combination of test compound and 6% HFCS, compared with HFCS-alone ([2]; test compound at 10 ppm or less with 6% HFCS, low sodium buffer pH 2.8)","Equivalent Sucrose Conc. ([2]; test compound at 10 ppm or less with 6% sucrose, low sodium buffer pH 7.1)","inherent sweetness intensity, compared with sucrose solution [3] [% sucrose]",Fructose Enhancement EC50 Ratio ([1]; 10 μM test compound),Fructose Enhancement EC50 Ratio ([1]; 50 μM test compound),Sucralose Enhancement EC50 Ratio ([1]; 50 μM test compound)
"CC(C)(COc1cccc2c1C(N)=NS(=O)(=O)N2)Nc1ccnc(-n2ccnc2)n1 [Compound 200, 4-amino-5-(2-((2-(1H-imidazol-1-yl)pyrimidin-4-yl)amino)-2-methylpropoxy)1H-benzo[c][1,2,6]thiadiazine 2,2-dioxide]",A (An “A” value indicates an enhancement ratio of greater than 20),C (A “C” value indicates an enhancement ratio greater than 1 and less than 10),C (A “C” value indicates an enhancement ratio greater than 1 and less than 10),C (A “C” value indicates an enhancement ratio greater than 1 and less than 10),greater than 6 % HFCS,A (An “A” value indicates an equivalent sucrose concentration of 10% or greater),< 1.5,–,–,–
NC1=NS(=O)(=O)Nc2cccc(OC[C@H]3CCCN(c4cc(C(=O)NCC5CC5)ccn4)C3)c21 [Compound 617],A (An “A” value indicates an enhancement ratio of greater than 20),C (A “C” value indicates an enhancement ratio greater than 1 and less than 10),C (A “C” value indicates an enhancement ratio greater than 1 and less than 10),C (A “C” value indicates an enhancement ratio greater than 1 and less than 10),–,–,–,C (A “C” value indicates an enhancement ratio greater than 1 and less than 10),C (A “C” value indicates an enhancement ratio greater than 1 and less than 10),A (An “A” value indicates an enhancement ratio of greater than 20)
NC1=NS(=O)(=O)Nc2cccc(OC[C@H]3CCCN(c4cc(C(=O)NCC5CCCCC5)ccn4)C3)c21 [Compound 618],B (A “B” value indicates an enhancement ratio from 10 to 20),C (A “C” value indicates an enhancement ratio greater than 1 and less than 10),C (A “C” value indicates an enhancement ratio greater than 1 and less than 10),C (A “C” value indicates an enhancement ratio greater than 1 and less than 10),–,–,–,–,C (A “C” value indicates an enhancement ratio greater than 1 and less than 10),B (A “B” value indicates an enhancement ratio from 10 to 20)
